Experimental data published in US20070259897A1, “Fungicidal Mixtures” (BASF Aktiengesellschaft, priority 2004, published 2007).

Tested on: Cochliobolus miyabeanus
Assay: Activity against brown spot of rice caused by Cochliobolus miyabeanus, protective application
Assay type: in vivo
Conditions: individual active compound, evaluated after 6 days
Experimental: The active compounds, separately or jointly, were prepared as a stock solution comprising 0.25% by weight of active compound in acetone or DMSO. 1% by weight of the emulsifier Uniperol® EL (wetting agent having emulsifying and dispersing action based on ethoxylated alkylphenols) was added to this solution, and the mixture was appropriately diluted with water to the desired concentration.
Use example—Activity against brown spot of rice caused by Cochliobolus miyabeanus, protective application Leaves of rice seedlings of the cultivar “Tai-Nong 67” which had been grown in pots were sprayed to runoff point with an aqueous suspension having the concentration of active compound stated below. The next day, the plants were inoculated with an aqueous spore suspension of Cochliobolus miyabeanus. The test plants were then placed in climatized chambers at 22-24° C. and 95-99% relative atmospheric humidity for 6 days. The extent of the development of infection on the leaves was then determined visually.
The visually determined values for the percentage of infected leaf area were converted into efficacies as a % of the untreated control:
The efficacy (E) is calculated as follows using Abbot's formula: E=(1−α/β)·100 α corresponds to the fungal infection of the treated plants in % and β corresponds to the fungal infection of the untreated (control) plants in % An efficacy of 0 means that the infection level of the treated plants corresponds to that of the untreated control plants; an efficacy of 100 means that the treated plants are not infected.
The expected efficacies of the mixtures of active compounds were determined using Colby's formula [R. S. Colby, “Calculating synergistic and antagonistic responses of herbicide combinations”, Weeds, 15, 20-22 (1967)] and are compared with the observed efficacies.
Colby's formula: E=x+y−x·y/100
E expected efficacy, expressed in % of the untreated control, when using the mixture of the active compounds A and B at the concentrations a and b x efficacy, expressed in % of the untreated control, when using active compound A at the concentration a y efficacy, expressed in % of the untreated control, when using active compound B at the concentration b

SMILES	Efficacy in % of the untreated control (3.1 ppm in the spray liquor) [%]	Efficacy in % of the untreated control (6.25 ppm in the spray liquor) [%]	Efficacy in % of the untreated control (12.4 ppm in the spray liquor) [%]
CC1CCN(c2c(-c3c(F)cc(F)cc3F)c(Cl)nc3ncnn23)CC1 [I, 5-chloro-7-(4-methylpiperidin-1-yl)-6-(2,4,6-trifluorophenyl)[1,2,4]tri-azolo[1,5-a]pyrimidine]	22	56	
CC12CC1(C)C(=O)N(c1cc(Cl)cc(Cl)c1)C2=O (stereo not shown) [II (procymidone), 3-(3,5-dichlorophenyl)-1,5-dimethyl-3-aza-bicyclo[3.1.0]hexane-2,4-dione]		22	44
